# Molecular target: T1, human mu opioid receptors (hMOR) (Homo sapiens, UniProt P35372)
# T1 construct: expressed in transfected cells; host or cells: CHO cells (CHO-hMOR), membranes or intact cells
# Experiment: [35S]GTPγS binding, CHO-hMOR membranes (control devoid of CBRs)
# Type: biochemical
# Settings: 10 μM
# Protocol: Non-specific binding was defined by radioactivity remaining in the presence of 10 μM of non-radioactive GTPγS. All reactions were incubated for 30 min at 30°C, terminated by filtration through Whatman GF/B glass fiber filters (Brandel, Inc.) and followed by four 4 ml washes of ice cold filtration buffer (50 mM HEPES, pH 7.4) containing 0.1% bovine serum albumin. Filter punches of individual samples were placed in scintillation vials containing 4 mls of ScintiverseTM BD cocktail scintillation fluid (Fisher Scientific, Pittsburg, PA, USA). Final counts were determined using liquid scintillation spectrophotometry (Tri Carb 2100 TR Liquid Scintillation Analyzer, Packard Instrument Company, Meriden, CT, USA) after overnight incubation.
# T1 sequence (P35372 whole entry): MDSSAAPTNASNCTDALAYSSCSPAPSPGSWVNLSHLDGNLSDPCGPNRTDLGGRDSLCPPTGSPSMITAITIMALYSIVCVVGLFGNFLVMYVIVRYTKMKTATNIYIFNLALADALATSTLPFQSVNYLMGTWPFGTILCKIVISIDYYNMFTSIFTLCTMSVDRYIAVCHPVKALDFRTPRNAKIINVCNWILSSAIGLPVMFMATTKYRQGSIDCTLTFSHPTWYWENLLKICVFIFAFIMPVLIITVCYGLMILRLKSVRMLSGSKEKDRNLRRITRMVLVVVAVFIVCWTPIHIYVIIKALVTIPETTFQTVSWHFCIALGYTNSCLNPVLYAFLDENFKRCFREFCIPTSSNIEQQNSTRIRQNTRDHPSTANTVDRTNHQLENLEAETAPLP
structure (smiles),measurement,value
"OCCOc1ccc(/C(=C(/CCCl)c2ccccc2)c2ccccc2)cc1 [OSP, ospemifene]","decrease in basal G-protein activity, CHO-hMOR",11%
